From US20240382480A1, “PHARMACEUTICAL COMPOSITION CONTAINING JAK3/JAK1/TBK1 SELECTIVE INHIBITOR AND MEDICAL USE THEREOF” (SHENZHEN CHIPSCREEN BIOSCIENCES CO., LTD., priority 2021, published 2024)

How the values were obtained:
Assay type in all cases: in vivo
Balb/c mice = test: DNCB-induced atopic dermatitis model in mice, oral gavage; conditions: 50 mg/kg twice a day oral gavage, vs model group
Method: Drug preparation: appropriate amount of powder of sample for test was weighed accurately and put in a sample preparation tube. Purified water was added and sonication was performed until the sample was completely dissolved, and a concentration of 5 mg/ml (based on active ingredient) was prepared, and it was administered within 15 minutes after preparation.
Experimental animals: Balb/c mice were purchased from Sichuan Academy of Traditional Chinese Medicine, 27 mice in total.
Grouping: Balb/c mice (27 mice in total) were randomly divided into three groups, 9 mice in each group, which were blank group, model group and administration group respectively.
Modeling: 300 μl of 1% DNCB was applied to the abdomen of mice in the model group and administration group, and 0.5% DNCB was applied to the ears every other day after 7 d, and lasted for 31 days.
Administration: administration was carried out after 12 days of modeling. Administration group: dosage and frequency of administration: 50 mg/kg (based on active ingredient), twice a day. Model group: the same dose of vehicle was given. The administration cycle was 3 weeks (12 d-31 d). The method of administration: oral gavage.
• (1) General observation: ear thickness and spleen/body weight ratio. At the end point of the test, the body weight of mice was weighed, and the left and right ear thickness (mm) of mice was measured, and then the mice were subjected to gross anatomy, and the spleen of mice was weighed to calculate the spleen/body weight ratio of mice. • (2) Serum: IgE. At the end point of the test, blood was collected from the orbit of mice, and the total IgE in the serum of mice was detected (ELISA method). • (3) Histopathology: HE staining of the ear (to measure ear epidermal thickness) and toluidine blue staining (to measure the number of mast cells in the ear epidermis).
HE staining of ears: the fixed mouse ear tissue was dehydrated by automatic dehydrator and embedded, and then sliced. After dewaxing the slices to water, hematoxylin staining was performed until blue appeared; after elution, eosin staining was performed for sealing, and finally microscopy and image acquisition were carried out.
The above specimens were subjected to the procedures of dehydration, trimming, embedding, slicing, staining, sealing, and other procedures, and finally microscopy and image acquisition were carried out.

[1] = system: C57BL/6J mice with alopecia areata; test: Alopecia areata mouse model, oral gavage; conditions: 80 mg/kg twice a day oral gavage for 23 d
Method: Drug preparation: appropriate amount of powder of test sample was weighed accurately and put in a sample preparation tube, then add purified water was added and sonification was performed until the sample was completely dissolved. A concentration of 8 mg/ml (based on active ingredient) was prepared, and it was administered within 15 minutes after preparation.
Experimental animals: 16 C57BL/6J mice with alopecia areata, female, 12 weeks old. They were purchased from Beijing Vital River Laboratory Animal Technology Co., Ltd. Animal inclusion criteria: mice with patchy and traceless hair loss, mainly with back hair loss and head hair loss.
Grouping and criteria: 14 C57BL/6J mice were enrolled in the groups, and 5 mice in the model group, 9 mice in the administration group (test sample). The overall situation of hair loss in the administration group was more serious than that in the model group.
Administration information: administration group: single dose: 80 mg/kg (based on active ingredient) twice a day for 23 d continuously; model group: equal doses of vehicle given. Method of administration: oral gavage.
Record of change rate of body weight and alopecia areata area: measured twice a week, weighed and observed with naked eyes on Monday and Thursday.
Spleen size and weight: at the end of the test, the body weight of mice was weighed, and then the mice were subjected to gross anatomy, the spleen of the mice was observed and weighed to calculate the spleen/body weight ratio of mice.

normal animals = test: Spleen weight in normal animals; conditions: no dose or method printed
[2] = end point, vs model group, p<0.05

SMILES: C=CC(=O)N(C)c1cc(Nc2ncc(Cl)c(NCCCNC(=O)c3ccc(C#N)cc3)n2)ccc1F [test sample, N-(3-((5-chloro-2-((4-fluoro-3-(N-methylacrylamido)phenyl)amino)-4-pyrimidinyl)amino)propyl)-4-cyanobenzamide]
- spleen/body weight ratio (Balb/c mice; 3 weeks (12 d-31 d), end point, # p<0.05): significantly reduced
- ear epidermal thickness (Balb/c mice; 3 weeks, HE staining, # p<0.05): significantly decreased
- serum IgE level (Balb/c mice; 3 weeks, end point, ELISA, ## p<0.01): significantly decreased
- ear thickness (including the left ear and the right ear) (Balb/c mice; 3 weeks, end point, # p<0.05): significantly reduced
- number of mast cells in ear epidermis (Balb/c mice; 3 weeks, toluidine blue staining, # p<0.05): significantly decreased
- spleen weight [1, 2]: significantly lower
- spleen/body weight ratio [1, 2]: significantly lower
- alopecia areata area ([1]; better than model group (vehicle), p<0.01): significantly ameliorated
- weight of spleen in normal animals (normal animals): does not reduce the weight of spleen
